Test results: patent US20120165319A1, “INHIBITORS OF INTERLEUKIN-1 BETA CONVERTING ENZYME” (VERTEX PHARMACEUTICALS INCORPORATED, priority 1995, published 2012)
pIC50, pKi: −log10 of the molar value. Like-named read-outs stand apart in the source and are kept apart here.

How the values were obtained:
ICE = target: T1, ICE (Homo sapiens, UniProt P29466); assay: Enzyme assay with UV-visible substrate (visible ICE assay, Succinyl-Tyr-Val-Ala-Asp-pNitroanilide); format: biochemical
T1 sequence (P29466 120-297 limits assumed): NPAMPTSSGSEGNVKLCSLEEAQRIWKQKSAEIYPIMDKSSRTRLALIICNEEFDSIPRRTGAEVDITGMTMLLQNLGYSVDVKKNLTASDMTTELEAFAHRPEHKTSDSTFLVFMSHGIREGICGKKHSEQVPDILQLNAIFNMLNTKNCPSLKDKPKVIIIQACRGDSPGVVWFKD
T1 sequence (P29466 317-404 limits assumed): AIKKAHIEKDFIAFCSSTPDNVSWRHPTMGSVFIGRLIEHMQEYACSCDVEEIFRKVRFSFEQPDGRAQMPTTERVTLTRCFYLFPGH
Outline: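 Read-out is the rate of pNA chromophore release (mOD/min, linear fit) monitored at 405-603 nm over 20 min at 37° C. Substrate was succinyl-Tyr-Val-Ala-Asp-pNitroanilide, added after a 15 min room-temperature preincubation of ICE with inhibitor.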

IL-1β, human whole blood = assay: Whole blood assay for IL-1β production; format: cell-based; conditions: read-out: Whole human blood IC50
Outline: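 Human whole blood collected on Na2EDTA was treated with serially diluted compound in saline and then stimulated with LPS at 5.0 ng/ml final, for 16-18 h at 30 °C, in duplicate or triplicate. Plasma IL-1β was measured by ELISA at 1:200 dilution.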

[1] = Homo sapiens, * = values obtained upon reassay
[2] = * = values obtained upon reassay

| pKi (ICE; Table 17) | pIC50 (IL-1β, human whole blood; Homo sapiens, Table 17) | Compound | pKi (ICE; Table 5) | pIC50 (IL-1β, human whole blood; [1]) | pIC50 (IL-1β, human whole blood; [2]) |
| --- | --- | --- | --- | --- | --- |
| 8.30 | 5.60 | CC(=O)N1C[C@H](NC(=O)c2cc(C)c(O)c(C)c2)C(=O)N(CC(=O)N[C@H](C=O)CC(=O)O)c2ccccc21 [Compound 671, (3S)-3-[(3S)-2-Oxo-3-(3,5-dimethyl-4-hydroxybenzoyl)amino-5-acetyl-2,3,4,5-tetrahydro-1H-1,5-benzodiazepine-1-acetylamino]-4-oxo-butyric acid] | – | – | – |
| 8.35 | 5.54 | O=C[C@H](CC(=O)O)NC(=O)CN1C(=O)[C@@H](NC(=O)c2nccc3ccccc23)CN(C(=O)CO)c2ccccc21 [Compound 696, (3S)-3-[(3S)-2-Oxo-3-(isoquinolin-1-oyl)amino-5-hydroxyacetyl-2,3,4,5-tetrahydro-1H-1,5-benzodiazepine-1-acetylamino]-4-oxo-butyric acid] | – | – | – |
| – | – | CC(=O)N1C[C@H](NC(=O)c2ccc3ccccc3c2)C(=O)N(CC(=O)N[C@H](C=O)CC(=O)O)c2ccccc21 [Compound 605n] | 7.92 | < 4.70 | – |
| – | – | O=C(O)C[C@H](NC(=O)[C@@H]1CCCN2C(=O)CC[C@H](NC(=O)c3ccccc3)C(=O)N12)C(=O)c1nc2cc(Cl)cc(Cl)c2o1 [Compound 223e, [3S(1S,9S)]3-(9-Benzoylamino-6,10-dioxo-1,2,3,4,7,8,9,10-octahydro-6H-pyridazino-[1,2-a][1,2]diazepine-1-carboxamido)-4-(5,7-dichlorobenzoxazol-2-yl)-4-oxobutanoic acid] | 8.80 | < 4.70 | – |
| – | – | O=C[C@H](CC(=O)O)NC(=O)[C@@H]1CCCN2C(=O)CC[C@H](NC(=O)c3nccc4ccccc34)C(=O)N12 [Compound 412, [3S(1S,9S)]3-[6,10-Dioxo-9-(isoquinolin-1-oylamino)-1,2,3,4,7,8,9,10-octahydro-6H-pyridazino[1,2-a][1,2]diazepine-1-carboxamido]-4-oxobutanoic acid] | 8.89 | 6.15 | 6.00 |
| 6.92 | 5.26 | O=C[C@H](CC(=O)O)NC(=O)[C@@H]1CCCN2C(=O)CCN(NC(=O)c3cc4ccccc4[nH]3)C(=O)N12 [Compound 1075, [3S(4S)]3-[6,10-Dioxo-7-(indole-2-carboxamido)-1,2,3,4,7,8,9,10-octahydro-6H-pyridazino[1,2-a][1,2,4]triazepine-4-carboxamido]-4-oxobutanoic acid] | – | – | – |
| – | – | O=C[C@H](CC(=O)O)NC(=O)[C@@H]1CCCN2C(=O)CC[C@H](NC(=O)c3ccc(Cl)cc3)C(=O)N12 [Compound 416] | 7.92 | 5.47 | – |
| – | – | O=C[C@H](CC(=O)O)NC(=O)[C@@H]1CCCN2C(=O)CC[C@H](NC(=O)c3ccc(NC(=O)Cc4ccccc4)cc3)C(=O)N12 [Compound 486, [3S(1S,9S)]3-{6,10-Dioxo-1,2,3,4,7,8,9,10-octahydro-9-[4-(phenylacetamido)benzamido]-6H-pyridazino[1,2-a][1,2]diazepine-1-carboxamido}-4-oxobutanoic acid] | 8.64 | 6.30 | – |
| – | – | O=C1C[C@H](NC(=O)[C@@H]2CCCN3C(=O)CC[C@H](NC(=O)c4ccccc4)C(=O)N23)C(OCc2ccccc2)O1 (stereo partly drawn) [Compound 213e, [1S,9S(2RS,3S)]9-Benzoylamino-6,10-dioxo-1,2,3,4,7,8,9,10-octahydro-N-(2-benzyloxy-5-oxotetrahydrofuran-3-yl)-6H-pyridazino[1,2-a][1,2]-diazepine-1-carboxamide] | 6.89 | 6.22 | 6.40 |
| – | – | O=C[C@H](CC(=O)O)NC(=O)[C@@H]1CCCN2C(=O)CCN(NC(=O)c3ccc4c(c3)OCO4)C(=O)N12 [Compound 1015, [3S(4S)]3-[6,10-Dioxo-7-(3,4-methylenedioxybenzoylamino)-1,2,3,4,7,8,9,10-octahydro-6H-pyridazino[1,2-a][1,2,4]triazepine-4-carboxamido]-4-oxobutanoic acid] | 7.40 | 5.77 | – |
| – | – | CC(=O)Nc1cccc(C(=O)N[C@H]2CCC(=O)N3CCC[C@@H](C(=O)N[C@H](C=O)CC(=O)O)N3C2=O)c1 [Compound 450, [3S(1S,9S)]3-{9-[(3-Acetamido)benzamido]-6,10-dioxo-1,2,3,4,7,8,9,10-octahydro-6H-pyridazino[1,2-a][1,2]diazepine-1-carboxamido}-4-oxobutanoic acid] | 8.30 | 5.66 | 5.77 |
| 8.68 | 5.92 | Cc1cc(C(=O)N[C@H]2CN(C(=O)CO)c3ccccc3N(CC(=O)N[C@H](C=O)CC(=O)O)C2=O)cc(C)c1O [Compound 691a, (3S)-3-[(3S)-2-Oxo-3-(3,5-dimethyl-4-hydroxybenzoyl)amino-5-hydroxyacetyl-2,3,4,5-tetrahydro-1H-1,5-benzodiazepine-1-acetylamino]-4-oxo-butyric acid] | – | – | – |
| – | – | O=C[C@H](CC(=O)O)NC(=O)[C@@H]1CCCN2C(=O)CC[C@H](NC(=O)c3cc4ccccc4[nH]3)C(=O)N12 [Compound 475, [3S(1S,9S)]3-[6,10-Dioxo-9-(indol-2-oylamino)-1,2,3,4,7,8,9,10-octahydro-6H-pyridazino[1,2-a][1,2]diazepine-1-carboxamido]-4-oxobutanoic acid] | 8.26 | 6.40 | 6.46 |
| – | – | CC(C)OC(=O)C[C@H](NC(=O)[C@@H]1CCCN2C(=O)CC[C@H](NC(=O)c3ccccc3)C(=O)N12)C(OC(C)C)OC(C)C [Compound 2100d] | < 4.00 | < 4.70 | – |
| – | – | O=C[C@H](CC(=O)O)NC(=O)[C@@H]1CCCN2C(=O)CC[C@H](NC(=O)c3ccsc3)C(=O)N12 [Compound 410] | 7.77 | 5.55 | – |
| – | – | O=C[C@H](CC(=O)O)NC(=O)[C@@H]1CCCN2C(=O)CCN(NC(=O)c3ccccc3)C(=O)N12 [Compound 265, [3S(4S)]3-(7-Benzamido-6,10-dioxo-1,2,3,4,7,8,9,10-octahydro-6H-pyridazino[1,2-a][1,2,4]triazepine-4-carboxamido)-4-oxobutanoic acid] | 7.33 | 5.85 | – |
| 7.57 | < 4.70 | O=C[C@H](CC(=O)O)NC(=O)[C@@H]1CCCN2C(=O)CCN(NC(=O)c3cc4ccccc4s3)C(=O)N12 [Compound 1053, [3S(4S)]3-[7-(Benzo[b]thiophene-2-carbonyl)amino-6,10-dioxo-1,2,3,4,7,8,9,10-octahydro-6H-pyridazino[1,2-a][1,2,4]triazepine-4-carboxamido]-4-oxobutanoic acid] | – | – | – |

| Compound | pKi (ICE; Table 17) | pIC50 (IL-1β, human whole blood; Homo sapiens, Table 17) | pKi (ICE; Table 5) | pIC50 (IL-1β, human whole blood; [1]) | pIC50 (IL-1β, human whole blood; [2]) |
| --- | --- | --- | --- | --- | --- |
| CC(=O)Nc1ccc(C(=O)N[C@H]2CCC(=O)N3CCC[C@@H](C(=O)N[C@H](C=O)CC(=O)O)N3C2=O)cc1Cl [Compound 214l, [3S(1S,9S)]3-(9-(3-Chloro-4-acetamidobenzoyl)amino-6,10-dioxo-1,2,3,4,7,8,9,10-octahydro-6H-pyridazino[1,2-a][1,2]diazepine-1-carboxamido)-4-oxobutanoic acid] | 8.22 | 5.96 | – | – | – |
| O=C1C[C@H](NC(=O)[C@@H]2CCCN3C(=O)CC[C@H](NC(=O)c4ccccc4)C(=O)N23)C(OCc2ccccc2)O1 (single isomer, unassigned) [Compound 2100n] | 6.17 | 5.40 | – | – | – |
| O=C1C[C@H](NC(=O)[C@@H]2CCCN3C(=O)CC[C@H](NC(=O)c4ccccc4)C(=O)N23)C(OCCc2ccccc2)O1 (mixture of isomers) [Compound 2100k, [1S,9S(2RS,3S)]9-Benzoylamino-6,10-dioxo-1,2,3,4,7,8,9,10-octahydro-N-(2-phenethyloxy-5-oxotetrahydrofuran-3-yl)-6H-pyridazino[1,2-a][1,2]diazepine-1-carboxamide] | 6.28 | 6.22 | – | – | – |
